We go through 4 molecules from publication PMC8550792, “Evolution of kinase polypharmacology across HSP90 drug discovery” (Cell Chemical Biology, 2021).

Structures are written as SMILES.

Holding throughout (assay): biochemical
What all share (type): biochemical

Assay [1] has as its target T1, 382 unique human kinases (Homo sapiens, UniProt Q13882).
T1 construct: purchased Reaction Biology (HotSpot contract assay)
The conditions noted are these: BRK, 10 uM; for remaining activity at 10 µM: read-out: % Enzyme Activity (relative to DMSO controls).

The target of assay [2] is T2, 382 unique human kinases (Homo sapiens, UniProt O00506).
T2 construct: purchased Reaction Biology (HotSpot contract assay)
The conditions noted are these: STK25/YSK1, compound at 10 uM, duplicate values; for remaining activity at 10 µM: read-out: % Enzyme Activity (relative to DMSO controls).

Assay [3] addresses T3, 382 unique human kinases (Homo sapiens, UniProt P16234, T674I).
T3 construct: purchased Reaction Biology (HotSpot contract assay)
The conditions noted are these: PDGFRa (T674I), [ATP] 20 µM, compound 10 uM; for remaining activity at 10 µM: read-out: % Enzyme Activity (relative to DMSO controls).

Assay [4] addresses T4, 382 unique human kinases (Homo sapiens, UniProt Q16539, T106M).
T4 construct: purchased Reaction Biology (HotSpot contract assay)
The conditions noted are these: P38a (T106M), 10 uM; for remaining activity at 10 µM: read-out: % Enzyme Activity (relative to DMSO controls).

Assay [5] deals with T5, 382 unique human kinases (Homo sapiens, UniProt O60285).
T5 construct: purchased Reaction Biology (HotSpot contract assay)
T5 sequence (O60285 1-661): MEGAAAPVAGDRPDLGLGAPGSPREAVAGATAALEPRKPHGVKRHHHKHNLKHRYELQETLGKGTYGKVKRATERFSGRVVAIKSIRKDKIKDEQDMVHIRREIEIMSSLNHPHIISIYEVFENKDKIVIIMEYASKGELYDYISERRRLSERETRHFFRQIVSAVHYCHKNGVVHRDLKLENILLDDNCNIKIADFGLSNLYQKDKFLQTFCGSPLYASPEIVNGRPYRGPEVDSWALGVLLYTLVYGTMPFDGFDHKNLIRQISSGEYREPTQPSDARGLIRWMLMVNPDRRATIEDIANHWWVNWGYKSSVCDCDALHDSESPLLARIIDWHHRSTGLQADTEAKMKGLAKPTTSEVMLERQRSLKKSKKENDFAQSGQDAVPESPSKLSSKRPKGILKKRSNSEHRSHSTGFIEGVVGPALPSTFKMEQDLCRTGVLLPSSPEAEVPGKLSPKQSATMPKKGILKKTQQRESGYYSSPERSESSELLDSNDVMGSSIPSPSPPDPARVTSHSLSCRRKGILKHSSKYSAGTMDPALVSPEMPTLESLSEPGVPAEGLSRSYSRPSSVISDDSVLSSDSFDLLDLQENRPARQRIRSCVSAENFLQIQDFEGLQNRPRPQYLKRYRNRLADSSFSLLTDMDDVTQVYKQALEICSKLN
The conditions noted are these: ARK5/NUAK1, 10 uM; for remaining activity at 10 µM: read-out: % Enzyme Activity (relative to DMSO controls).

For assay [6], the target named is T6, 382 unique human kinases (Homo sapiens, UniProt Q05513).
T6 construct: purchased Reaction Biology (HotSpot contract assay)
T6 sequence (Q05513 1-592): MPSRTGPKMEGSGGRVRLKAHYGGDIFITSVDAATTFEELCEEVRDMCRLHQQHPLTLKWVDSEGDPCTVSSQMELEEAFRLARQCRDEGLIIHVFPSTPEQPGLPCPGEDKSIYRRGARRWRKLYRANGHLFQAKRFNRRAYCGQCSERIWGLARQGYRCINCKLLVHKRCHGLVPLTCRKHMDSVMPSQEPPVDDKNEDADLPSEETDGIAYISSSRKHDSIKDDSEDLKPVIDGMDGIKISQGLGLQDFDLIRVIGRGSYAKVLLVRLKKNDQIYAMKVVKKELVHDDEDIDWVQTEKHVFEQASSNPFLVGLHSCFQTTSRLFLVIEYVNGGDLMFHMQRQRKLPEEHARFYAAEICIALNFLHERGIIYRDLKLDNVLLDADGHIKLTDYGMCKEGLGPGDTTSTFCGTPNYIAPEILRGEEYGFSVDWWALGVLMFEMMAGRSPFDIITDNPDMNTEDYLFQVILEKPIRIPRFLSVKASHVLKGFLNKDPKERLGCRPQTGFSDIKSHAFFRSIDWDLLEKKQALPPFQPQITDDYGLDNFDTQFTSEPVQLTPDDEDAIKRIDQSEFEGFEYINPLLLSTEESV
The conditions noted are these: PKCzeta, 10 uM; for remaining activity at 10 µM: read-out: % Enzyme Activity (relative to DMSO controls).

For assay [7], the target named is T7, 382 unique human kinases (Homo sapiens, UniProt O95382).
T7 construct: purchased Reaction Biology (HotSpot contract assay)
T7 sequence (O95382 1-1288): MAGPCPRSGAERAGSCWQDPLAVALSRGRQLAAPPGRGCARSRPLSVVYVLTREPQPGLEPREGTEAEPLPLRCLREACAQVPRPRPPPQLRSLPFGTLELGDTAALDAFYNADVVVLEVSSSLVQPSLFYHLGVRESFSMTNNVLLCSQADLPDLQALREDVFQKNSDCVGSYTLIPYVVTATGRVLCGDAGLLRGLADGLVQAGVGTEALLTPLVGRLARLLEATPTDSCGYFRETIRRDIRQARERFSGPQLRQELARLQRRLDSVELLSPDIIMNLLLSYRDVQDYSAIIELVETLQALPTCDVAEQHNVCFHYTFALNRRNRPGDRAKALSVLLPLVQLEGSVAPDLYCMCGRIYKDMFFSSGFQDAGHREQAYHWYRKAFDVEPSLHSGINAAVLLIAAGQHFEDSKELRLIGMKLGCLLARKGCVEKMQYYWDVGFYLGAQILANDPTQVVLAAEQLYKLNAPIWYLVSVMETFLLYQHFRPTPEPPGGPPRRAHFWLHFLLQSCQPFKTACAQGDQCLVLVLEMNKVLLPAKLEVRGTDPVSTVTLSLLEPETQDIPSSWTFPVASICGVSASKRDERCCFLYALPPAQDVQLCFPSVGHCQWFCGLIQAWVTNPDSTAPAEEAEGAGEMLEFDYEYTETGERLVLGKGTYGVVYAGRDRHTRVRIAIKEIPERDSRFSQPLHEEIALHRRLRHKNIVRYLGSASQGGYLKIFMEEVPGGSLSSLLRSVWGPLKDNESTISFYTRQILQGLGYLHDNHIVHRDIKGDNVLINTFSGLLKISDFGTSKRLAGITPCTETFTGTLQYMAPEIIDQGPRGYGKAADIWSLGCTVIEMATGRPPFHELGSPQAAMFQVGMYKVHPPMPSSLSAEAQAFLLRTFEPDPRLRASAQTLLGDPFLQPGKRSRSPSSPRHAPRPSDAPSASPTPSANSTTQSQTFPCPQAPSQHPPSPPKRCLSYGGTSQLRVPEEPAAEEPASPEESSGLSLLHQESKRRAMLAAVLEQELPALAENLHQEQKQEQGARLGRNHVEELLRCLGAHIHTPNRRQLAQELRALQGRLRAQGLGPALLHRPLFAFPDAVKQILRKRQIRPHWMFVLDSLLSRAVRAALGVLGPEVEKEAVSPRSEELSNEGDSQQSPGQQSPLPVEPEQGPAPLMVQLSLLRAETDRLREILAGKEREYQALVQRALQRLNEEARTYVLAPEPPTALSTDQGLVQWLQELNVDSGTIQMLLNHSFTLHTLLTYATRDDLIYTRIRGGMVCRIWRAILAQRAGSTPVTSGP
The conditions noted are these: MEKK6, 10 uM; for remaining activity at 10 µM: read-out: % Enzyme Activity (relative to DMSO controls).

T1 sequence (Q13882 whole entry): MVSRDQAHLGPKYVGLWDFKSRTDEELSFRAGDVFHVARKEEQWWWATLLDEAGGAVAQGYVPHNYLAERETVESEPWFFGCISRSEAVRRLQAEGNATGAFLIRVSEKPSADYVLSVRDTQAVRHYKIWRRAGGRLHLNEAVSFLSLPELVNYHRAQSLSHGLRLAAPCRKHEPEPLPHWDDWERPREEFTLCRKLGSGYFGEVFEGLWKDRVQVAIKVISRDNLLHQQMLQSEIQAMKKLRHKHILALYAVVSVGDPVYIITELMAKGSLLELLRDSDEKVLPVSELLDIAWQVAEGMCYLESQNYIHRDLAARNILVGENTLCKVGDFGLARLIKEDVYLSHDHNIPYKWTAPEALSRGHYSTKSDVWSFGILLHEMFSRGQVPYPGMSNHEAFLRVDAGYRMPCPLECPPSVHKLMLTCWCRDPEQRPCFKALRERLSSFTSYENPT
T4 sequence (Q16539 whole entry T106M): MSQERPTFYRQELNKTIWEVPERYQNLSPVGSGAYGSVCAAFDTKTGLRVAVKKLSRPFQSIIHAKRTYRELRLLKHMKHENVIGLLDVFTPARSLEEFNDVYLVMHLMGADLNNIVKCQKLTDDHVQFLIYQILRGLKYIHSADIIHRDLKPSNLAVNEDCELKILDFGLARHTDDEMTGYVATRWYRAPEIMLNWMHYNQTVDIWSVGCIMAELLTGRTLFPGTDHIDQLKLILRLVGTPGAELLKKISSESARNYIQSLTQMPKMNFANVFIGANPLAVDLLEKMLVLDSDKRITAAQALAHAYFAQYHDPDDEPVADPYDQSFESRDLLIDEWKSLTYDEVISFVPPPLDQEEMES
T2 sequence (O00506 whole entry): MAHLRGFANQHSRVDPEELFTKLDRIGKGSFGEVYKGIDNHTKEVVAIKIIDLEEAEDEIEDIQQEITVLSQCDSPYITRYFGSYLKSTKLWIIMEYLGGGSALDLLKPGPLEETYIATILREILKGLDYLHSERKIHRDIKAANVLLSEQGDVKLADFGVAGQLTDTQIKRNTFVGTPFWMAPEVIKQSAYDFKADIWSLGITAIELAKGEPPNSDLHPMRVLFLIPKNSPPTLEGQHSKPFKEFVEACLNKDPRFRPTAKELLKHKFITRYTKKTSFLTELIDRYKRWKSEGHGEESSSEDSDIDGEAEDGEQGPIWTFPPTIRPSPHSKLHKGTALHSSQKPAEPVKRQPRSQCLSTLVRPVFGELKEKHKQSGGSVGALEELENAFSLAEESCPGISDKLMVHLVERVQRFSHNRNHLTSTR
T3 sequence (P16234 24-1089 T674I): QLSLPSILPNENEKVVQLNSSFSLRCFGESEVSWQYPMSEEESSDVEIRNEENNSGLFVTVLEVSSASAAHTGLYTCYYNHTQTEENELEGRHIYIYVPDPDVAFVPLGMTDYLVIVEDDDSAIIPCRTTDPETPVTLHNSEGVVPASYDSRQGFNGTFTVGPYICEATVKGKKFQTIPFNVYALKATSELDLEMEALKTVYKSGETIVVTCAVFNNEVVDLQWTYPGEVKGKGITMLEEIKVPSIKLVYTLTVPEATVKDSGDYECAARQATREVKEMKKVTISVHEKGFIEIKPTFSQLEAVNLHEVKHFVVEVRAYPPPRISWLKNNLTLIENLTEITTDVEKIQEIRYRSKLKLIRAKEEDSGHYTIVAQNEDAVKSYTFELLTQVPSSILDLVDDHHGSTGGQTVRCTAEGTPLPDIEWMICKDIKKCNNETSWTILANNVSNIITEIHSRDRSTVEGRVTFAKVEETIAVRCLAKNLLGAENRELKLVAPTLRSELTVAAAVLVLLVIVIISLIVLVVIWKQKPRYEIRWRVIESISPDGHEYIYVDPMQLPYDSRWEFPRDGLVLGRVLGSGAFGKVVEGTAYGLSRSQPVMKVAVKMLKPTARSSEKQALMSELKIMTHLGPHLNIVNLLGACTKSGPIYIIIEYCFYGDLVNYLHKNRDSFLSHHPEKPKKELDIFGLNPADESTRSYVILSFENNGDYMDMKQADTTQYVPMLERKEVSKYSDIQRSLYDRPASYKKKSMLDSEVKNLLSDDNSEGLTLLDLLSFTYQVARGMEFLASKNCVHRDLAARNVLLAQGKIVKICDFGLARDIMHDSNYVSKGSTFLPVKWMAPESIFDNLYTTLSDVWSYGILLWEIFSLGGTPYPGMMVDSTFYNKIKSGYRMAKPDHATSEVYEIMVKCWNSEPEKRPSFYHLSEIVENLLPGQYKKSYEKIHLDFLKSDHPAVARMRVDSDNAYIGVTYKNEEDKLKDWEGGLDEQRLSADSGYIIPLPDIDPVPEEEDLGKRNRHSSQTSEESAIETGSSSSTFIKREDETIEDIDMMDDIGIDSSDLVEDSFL

As for `CC(C)c1cc(-c2n[nH]c(=O)n2-c2ccc3c(ccn3C)c2)c(O)cc1O` [Ganetespib (STA9090)], the remaining activity at 10 µM in assay [1] was 67.4%; in assay [2] it was 107%.
As to `CC(C)c1cc(-c2n[nH]c(=O)n2-c2ccc3c(ccn3C)c2)c(O)cc1O` [Ganetespib], the remaining activity at 10 µM in assay [3] is 33.8%; in assay [4] it was 95.8%; in assay [5], 97.3%; in assay [6] it was 92.3%; in assay [7], 94.2%.
Turning to `CCNC(=O)c1noc(-c2cc(C(C)C)c(O)cc2O)c1-c1ccc(CN2CCOCC2)cc1` [Luminespib (AUY-922)], in assay [1], the “% Enzyme Activity (relative to DMSO controls)” value is given as 83.67% and the remaining activity at 10 µM was 84.8%. Further, in assay [2], the “% Enzyme Activity (relative to DMSO controls)” value is 107.24% and the remaining activity at 10 µM came out at 110%.
Regarding `CCNC(=O)c1noc(-c2cc(C(C)C)c(O)cc2O)c1-c1ccc(CN2CCOCC2)cc1` [Luminespib], the “% Enzyme Activity (relative to DMSO controls)” value in assay [3] turned out to be 89.59%; in assay [4], 98.91%; in assay [5] it was 92.57%; in assay [6] it was 101.96%; in assay [7], 94.49%. The remaining activity at 10 µM came out at 91.6% in assay [3]; 99.8% in assay [4]; 93.9% in assay [5]; 102% in assay [6]; 96% in assay [7].
